Assay results from paper PMC5552351, “Bacteriological profiling of diphenylureas as a novel class of antibiotics against methicillin-resistant Staphylococcus aureus” (PLoS ONE, 2017).

System: VRS4
Assay: microbe, parasite or virus in culture
Type: cell-based, Staphylococcus aureus
Conditions: VRS4, compound at ½ × MIC
Experimental: CAMHB was inoculated with strain VRS4 or strain VRS10 (5×10^5 CFU/mL), as described previously, with the following modifications. Aliquots ([…]) of the bacterial suspension were divided into micro-centrifuge tubes and compounds 1 or 2 (at ½ × MIC) were introduced into each tube. After 30 minutes of incubation at room temperature, samples from each tube were transferred to a new micro-centrifuge tube, prior to addition of vancomycin (at 128 μg/mL). Plates containing the test agents and bacteria were then incubated at 37 °C for 20–22 hours after which the MIC value was determined. A fold-reduction was calculated by comparing the MIC of vancomycin compared to the MIC of vancomycin given in combination with compounds 1 or 2 (at ½ × MIC).

C/C(=N\NC(=N)N)c1ccc(NC(=O)Nc2ccc(OC3CCCCCC3)cc2)cc1 [compound 2]
Fold re-sensitization of VRSA to vancomycin: 7-fold
